In publication PMC3519477, “Structures of the Human Poly (ADP-Ribose) Glycohydrolase Catalytic Domain Confirm Catalytic Mechanism and Explain Inhibition by ADP-HPD Derivatives” (PLoS ONE, 2012):
Like-named read-outs stand apart in the source and are kept apart here.

Assays:
hPARG4 = target: T1, hPARG4 (Homo sapiens, UniProt Q86W56); assay: SPR competition experiments against saturating ADP-HPD; assay type: binding
T1 construct: a codon optimized gene encoding human PARG(448–976) was synthesized by GeneArt; 6His (TEV-cleavable) (N, cleaved yes); made in house; host or cells: E. coli BL21 (DE3) GOLD
Text: The ADPR and ADP-HPD complex structures superpose almost exactly (r.m.s. deviation 0.14 Å over all Cα; 0.47 Å over all atoms within the binding pocket (MOE, Chemical Computing Group)). ADPR and ADP-HPD engage in equivalent interactions, with the exception of loss of an H-bond between the 1″-OH and Glu756 as this OH is not present in ADP-HPD. […] We speculate that the bound conformation of ADP-HPD is stabilised relative to ADPR by dipole-dipole interactions between the HPD NH2 ^+ and a negatively charged α-phosphate oxygen and/or the oxygen linking the β-phosphate to ribose” (4.1 Å and 2.9 Å separation respectively, Figure 4b). In addition, the α-phosphate oxygen H-bonding network may be strengthened in the ADP-HPD complex by the charged interaction with the pyrrolidine NH2 ^+. This oxygen accepts H-bonds from the backbone NH of Gln754 and a conserved water molecule, and is shielded from solvent by Val753. Binding of ADP-HPD is primarily enthalpy driven (Table 1).
Studies of PARG inhibitor binding were conducted at 25°C. Samples were prepared as 5 fold dilutions in the experimental running buffer (20 mM HEPES pH 7, 150 mM NaCl, 2 mM DTT, 0.005% P20, 0.02% NaN3 with 5% DMSO). Surface regeneration was achieved using dissociation for a time period allowing the response to return to baseline. Control injections of a fixed, saturating ADP-HPD concentration of 20 µM were interspersed with injections of compound to allow monitoring of the functionality of the protein surface. To calculate affinities, SPR equilibrium binding data, consisting of Req values from 8–10 point concentration series, were analyzed by fitting a simple 1∶1 binding model to yield Rmax and Kd values using non-linear regression analysis in Grafit 6 (Erithacus Software).

TcPARG Glu114Ala mutant = test system: TcPARG Glu114Ala mutant; set-up: method as in supplemental 4 (Slade et al., 2011); conditions: ref supplemental 4 (Slade et al., 2011); cited from earlier work
TcPARG Glu115Ala mutant = test system: TcPARG Glu115Ala mutant; set-up: method as in supplemental 4 (Slade et al., 2011); conditions: ref supplemental 4 (Slade et al., 2011); cited from earlier work
bPARG = target: bPARG; set-up: method as in PMID 7830282; conditions: read-out: KD, reported value for bPARG; cited from earlier work
hPARG4 (hPARG(448–976)) = target: T2, hPARG4 (hPARG(448–976)) (Homo sapiens, UniProt Q86W56); assay: Isothermal titration calorimetry; assay type: binding; conditions: 25°C
T2 construct: a codon optimized gene encoding human PARG(448–976) was synthesized by GeneArt; 6His (TEV-cleavable) (N, cleaved yes); made in house; host or cells: E. coli BL21 (DE3) GOLD
Procedure: This was carried out using an iTC200 instrument (Microcal, GE Healthcare, Northampton, MA) at 25°C in the following buffer: 20 mM HEPES pH 7, 150 mM NaCl, 2 mM DTT, 0.02% NaN3. Protein concentrations were typically 30 µM in the cell with ligand concentrations of at least 10 fold this concentration in the syringe. Typical injection protocols of 19×2 µL injections, spaced at 2 or 3 minute intervals were used. Curves were fitted by non-linear regression analysis using a one-site binding model provided by MicroCal Origin software (version 7).

[1] = Cell activity of PARG inhibitor (data not shown); assay type: cell-based
[2] = target: T3, hPARG (full-length recombinant hPARG(1–976)-6His) (Homo sapiens, UniProt Q86W56); assay: PARG activity HTRF assay (PAR-PARP1 hydrolysis); assay type: biochemical
T3 construct: direct expression of hPARG(1–976) with a C-terminal hexahistidine tag; made in house; host or cells: E. coli BL21 (DE3) GOLD
Procedure: PARG activity was assessed using an HTRF assay which will be described in detail elsewhere (Bennett et al, manuscript in preparation). […] Following this incubation, biotinylated NAD^+ at a molar ratio to PARylated PARP1 of 0.7∶1 was added and incubation continued for 5 minutes. The reaction was terminated by addition of a PARP1-specific inhibitor to a final concentration of 4.7 µM. The solution was dialysed overnight to remove excess biotinylated NAD^+ and compound, and stored at −80°C. PARG activity was measured in a 384-well format HTRF assay using the biotin-labelled PARylated PARP1 as a substrate. Residual biotinylated PARylated PARP1 was detected by addition of a detection mix containing anti-6His–XL antibody (Cisbio) and streptavidin europium cryptate (Cisbio), and then monitoring the ratio of emission at 665 nm to 612 nm upon excitation at 340 nm.
Inhibition by ADP-HPD was measured using serial dilutions over the range 100 µM to 100 pM compound from a 1 mM stock in water. Assays contained 30 pM purified recombinant PARG and 9.67 nM PAR-PARP1 in a final volume of 9 µL assay buffer (50 mM MOPS pH 7.4, 0.1 mg/mL BSA, 3 mM EDTA, 0.4 mM EGTA, 1 mM DTT, 0.01% v/v Tween20, 50 mM KCl). Reactions were allowed to proceed for 8 minutes prior to the addition of 3 µL detection reagents (50 mM MOPS pH 7.4, 0.1 mg/mL BSA, 0.1 M Potassium Fluoride, 14 nM anti-6HIS-XL antibody, 0.75 nM Streptavidin Europium Cryptate). IC50s were calculated using a time-point of 1.5 hours from the addition of detection reagents.
Here, 17.5 nL of ADP-HPD ([…]) or OA-ADP-HPD (21.43 mM in DMSO) were dispensed by an ECHO555 (Labcyte Inc.) into Greiner white 1536-well plates over the specified range: ADP-HPD (100 µM to 100 pM) and OA-ADP-HPD (500 µM to 30 nM).
ADP-HPD and OA-ADP-HPD inhibition data were visualised in Prism (GraphPad), and IC50s derived from a non-linear regression analysis of the values from three separate experiments (run in triplicate) fit to a sigmoidal dose-response curve.

T2 sequence (Q86W56 448-976): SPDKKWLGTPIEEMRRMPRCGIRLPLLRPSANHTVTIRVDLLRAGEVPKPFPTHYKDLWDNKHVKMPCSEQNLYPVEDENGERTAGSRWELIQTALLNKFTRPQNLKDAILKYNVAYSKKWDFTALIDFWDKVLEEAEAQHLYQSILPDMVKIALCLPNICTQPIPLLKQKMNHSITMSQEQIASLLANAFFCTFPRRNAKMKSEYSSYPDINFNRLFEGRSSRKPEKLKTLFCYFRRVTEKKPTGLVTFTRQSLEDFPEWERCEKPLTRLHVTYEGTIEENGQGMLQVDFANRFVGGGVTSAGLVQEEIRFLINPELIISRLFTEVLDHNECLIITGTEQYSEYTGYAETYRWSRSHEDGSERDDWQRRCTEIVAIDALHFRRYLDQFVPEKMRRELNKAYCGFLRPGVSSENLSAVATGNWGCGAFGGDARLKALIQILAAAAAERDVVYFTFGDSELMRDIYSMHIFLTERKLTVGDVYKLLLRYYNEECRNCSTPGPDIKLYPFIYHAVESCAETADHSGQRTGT
T1 sequence (Q86W56 448-976): as above
T3 sequence (Q86W56 whole entry): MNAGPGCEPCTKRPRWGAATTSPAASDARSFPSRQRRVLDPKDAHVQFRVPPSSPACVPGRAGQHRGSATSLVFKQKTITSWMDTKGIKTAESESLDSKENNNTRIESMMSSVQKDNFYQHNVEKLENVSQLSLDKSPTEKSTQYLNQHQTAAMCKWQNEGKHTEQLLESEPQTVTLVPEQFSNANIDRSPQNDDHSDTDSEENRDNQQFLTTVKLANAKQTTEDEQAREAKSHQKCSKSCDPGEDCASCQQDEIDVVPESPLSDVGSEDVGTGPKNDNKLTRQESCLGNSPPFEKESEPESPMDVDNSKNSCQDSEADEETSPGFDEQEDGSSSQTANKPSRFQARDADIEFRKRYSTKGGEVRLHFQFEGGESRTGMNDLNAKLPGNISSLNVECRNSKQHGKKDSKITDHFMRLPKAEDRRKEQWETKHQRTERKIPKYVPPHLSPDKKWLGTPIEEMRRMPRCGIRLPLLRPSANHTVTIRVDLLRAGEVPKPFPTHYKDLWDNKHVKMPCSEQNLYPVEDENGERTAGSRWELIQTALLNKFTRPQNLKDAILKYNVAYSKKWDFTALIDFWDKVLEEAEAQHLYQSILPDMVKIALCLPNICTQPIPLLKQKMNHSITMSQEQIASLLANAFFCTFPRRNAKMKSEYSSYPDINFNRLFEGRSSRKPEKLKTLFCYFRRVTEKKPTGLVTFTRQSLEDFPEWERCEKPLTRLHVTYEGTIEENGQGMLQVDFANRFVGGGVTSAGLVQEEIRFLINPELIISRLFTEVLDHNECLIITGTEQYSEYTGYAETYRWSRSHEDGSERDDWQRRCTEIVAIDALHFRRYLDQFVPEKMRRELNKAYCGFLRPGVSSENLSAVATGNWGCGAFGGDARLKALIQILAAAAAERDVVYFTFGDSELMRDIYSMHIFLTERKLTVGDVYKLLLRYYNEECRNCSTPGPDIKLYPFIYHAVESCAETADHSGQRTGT

Nc1ncnc2c1ncn2[C@@H]1O[C@H](COP(=O)(O)O)[C@@H](O)[C@H]1O [AMP]
drop-off in affinity upon removal of the β-phosphate-ribose moiety (hPARG4; AMP compared with ADPR): 10 fold
Kd (hPARG4; same competition-based method as for ADPR, n = 1, read-out: approximate KD (SPR competition)): ~380 µM

Nc1ncnc2c1ncn2C1OC(COP(=O)(O)OP(=O)(O)OCC2OC(O)C(O)C2O)C(O)C1O (centres unmarked) [ADPR, ADP-ribose]
decrease in affinity versus wild-type (TcPARG Glu114Ala mutant): No detectable activity; 10-fold decrease in ADPR affinity
weaker affinity relative to ADP-HPD (hPARG4; binding to hPARG, compared with ADP-HPD): ~1000 fold
Kd (hPARG4; hPARG4-ADP-HPD complex formed in situ, increasing concentrations of compound, data not shown, read-out: KD (SPR competition)): ~40 µM
effect of mutation on affinity (TcPARG Glu115Ala mutant): No detectable activity; no effect on ADPR affinity
Kd (bPARG): 120 µM

CCCCCCCCNc1nc2c(N)ncnc2n1[C@@H]1O[C@H](COP(=O)(O)OP(=O)(O)OC[C@H]2NC[C@H](O)[C@@H]2O)[C@@H](O)[C@H]1O [OA-ADP-HPD, 8-n-octyl-amino-ADP-HPD]
Kd (hPARG4 (hPARG(448–976)); read-out: KD (ITC)): 0.8 ± 0.1 µM
ΔG (hPARG4 (hPARG(448–976)); ITC): -8.34 ± 0.072 kcal/mol
ΔH (hPARG4 (hPARG(448–976)); ITC): -12.1 ± 0.335 kcal/mol
ΔS (hPARG4 (hPARG(448–976)); ITC): −52.9±4.7 J/mol/K
cell activity [1]: unable to show cell activity
completeness of inhibition of hPARG activity in vitro ([2]; compared with ADP-HPD, used as maximally-inhibited control in HTS assay): more complete inhibitor
IC50 ([2]; hPARG, HTS campaign format, 3 µL reaction, 1536-well, 10 min, read-out: IC50): 16.3 ± 1.1 µM
